Laboratory results published in patent US10335417B2, “Thiazideamide derivative and use thereof” (Institute of Pharmacology and Toxicology Academy of …, priority 2015, dated 2019).

What was measured:
in vitro = details: dog, MDCK-MDR1
Text: MDCK-MDR1 cells were monolayer cells which highly express P-gp transporter after transfection of MDCK (Madin-Darby canine kidney epithelial cell) with MDR1 gene. Due to its density and high expression of efflux protein, the monolayer has similarity compared to blood-brain barrier (BBB) structure and now can be used as one of models for evaluating the ability of passing through BBB. In the invention, MDCK-MDR1 cells were used to study the membrane permeability of the compounds according to the invention, and to primarily evaluate its ability of passing through BBB.
The frozen MDCK-MDR1 cells were quickly thawed in a 37° C. water bath. To the resuscitated cells, DMEM medium containing 10% FBS was added, and the cells were cultured in an incubator at 37° C., 5% CO2, and a relative humidity of 90%. The medium was changed every other day. After fusion of the cells growing for 1-2 days, the cells were digested with 0.25% trypsin-EDTA (0.2%) mixed digestion solution at 37° C., and were sub-cultured at a certain ratio. The cells for use in experiment were those passaged for 40-60 generations.
When the cell fusion degree reached 80%, the cells were digested and then suspended in complete medium, and seeded to Millicell plate at 1×10^6 cells·mL^−1. The medium was changed every other day, and 1 week later, the medium was changed every day. After culturing for 5 days, the resistance value reached a constant value (>200 Ω·cm^2), and the cells could be used in the transport experiment.
After washing with 37° C. HBSS twice, the cells were incubated in a 37° C. culture incubator, wherein Rho-123 was added to the upper wells, and HBSS was added to the bottom wells. The incubation was carried out in a constant temperature shaker, and the solutions from the bottom wells were collected at each time point (0 min, 30 min, 90 min, 120 min), and stored at −20° C. for further use. The amount of Rho-123 permeated to the bottom well was determined by fluorospectrophotometer, wherein the emission wavelength was […], and the excitation wavelength was 530 nm.
The permeability from cavity-surface to basal surface: drug-containing HBSS 0.35 mL was add to Apical (AP), and blank HBSS 1.2 mL was added to Basolateral (BL). The Millicell was placed at 37° C. in a shaker under shaking at 50 r·min^−1, 50 μL sample was collected from the bottom well at 0, 30, 90, 120 min, respectively, and the same volume of blank HBSS was supplemented. 3 wells were set for each concentration, and to the sample, an internal standard solution (50 μL) and ethyl acetate (350 μL) were added precisely. The mixture was mixed homogeneously under shaking, and centrifuged at 12000 rmp for 5 min. The supernatant (300 μL) was volatilized to dryness, and re-dissolved in 50 μL acetonitrile. The 10 μL resultant solution was used for determination.
The permeability from basal surface to cavity surface: the drug is added to Basolateral (BL), and blank HBSS was added to Apical (AP), and the other steps were the same as those of the experiment for determining the permeability from cavity-surface to basal surface.
The apparent permeability coefficient (Papp) of a drug reflects the ability of the drug to pass through cell monolayer and the drug absorption rate and extent. It can be calculated in accordance with the following equation: […]
wherein, Q represents the amount of drug permeated in the t period, A represents cell surface area, and represents the area (0.6 cm^2) of supporting film in this model, and C0 represents an initial concentration. The unit of Papp is expressed as cm·s^−1.
By measurement using LC/MS, the concentration of each sample was quantitated using its standard curve (50 nM-10000 nM).

[1] = test system: chick embryo dorsal root ganglion; assay: in vitro serum-free culture model of chick embryonic dorsal root ganglion: neurite growth score with NGF; format: cell-based; details: 48 h, score 0-3, average of five ganglions, control 0.33
Method: The neurotrophic activity of the compounds according to the invention can be embodied in multiple in vitro biological models, such as in vitro serum-free culture model of chick embryonic dorsal root ganglion.
Experimental method: in a sterile environment, chick embryo, which had been incubated for 8 d, had the spinal and bilateral ganglion exposed under anatomical lens. Dorsal root ganglions were picked one by one using sharp forceps, and seeded in culture bottles spread with rat tail collagen, at a density of 5-6 ganglions per bottle, and two bottles for each dose. After attachment culture in a 37° C., 5% CO2 incubator for 1 h, serum-free medium DMEM containing nerve growth factor (NGF) (0.15 ng/mL), and the compound according to the invention were added. In the control group, only the medium and the same dose of NGF were added. After culture in the incubator for 48 h, the growth of neurite around dorsal root ganglion was observed under inverted phase contrast microscope, which was scored depending on the length and density of neurite.
Evaluation criteria: 0: no neurite; 1: rare long neurite; 2: relatively long or dense neurite; 3: long and dense neurite.

[2] = test system: BCAO-LBP mice (incomplete global cerebral ischemia); assay: mouse BCAO-LBP model of incomplete global cerebral ischemia: cerebral MDA content and neurological function score; format: in vivo, Kunmin mice
Text: In the Example, Kunmin mice were used as experimental subjects, intragastric (i.g.) administration was used, mouse BCAO-LBP (bilateral carotid artery occlusion with low blood pressure) model was used, and by determining neurological function score and the cerebral malondialdehyde (MDA) content in mice, the compounds were investigated for their protective effects on incomplete global cerebral ischemia in mice when administered prophylactically.
2.1.2 Preparation of a drug for intragastric administration: the compound was prepared to a 1.5 mg/ml solution using 0.7% CMC-Na solution.
28 mice, which had adapted to the laboratory environment for 1 week, were evenly grouped depending on body weight. The mice were intragastrically administered with 0.7% CMC-Na or one of the compounds, once/d, for 3 d. The groups were as followed:
Administration group: 12 mice, intragastrically administered at a dose of 0.2 ml/10 g, i.e., the dose of the compound was 30 mg/kg.
2.3.1 Mouse bilateral carotid artery ligation: 1 h after the last administration, the mice were subjected to orbital bloodletting to reduce blood pressure (which was about 30% of the total blood volume of the mice), and then fixed in supine position on the operating table, and cut in the middle of neck. Carotid artery was subjected to blunt dissection, and 2 lines were used in ligation for each side. The time counting started after the ligation with the third line, the carotid artery was cut off between the two lines, and the incision was sewn up. In the Sham-operated group, the carotid artery was only separated without ligation. After the operation, the mice were unfixed quickly, and the mice were observed and recorded for the behaviors within 6 h (scoring depending on the following table using blind method) and the death time. The brains were taken quickly after the mice died, the cerebellums were removed, and the MDA content in the whole cerebrum was determined by thiobarbituric acid (TBA).
The cerebra of mice were taken and weighed, and were prepared into 15% brain homogenate using N.S. 1.2 ml brain homogenate was placed in a 37° C. water bath for 1 h (shaking once every 10 min) and then taken out. 20% trichloroacetic acid 0.6 ml was added, and the mixture was mixed well, and was on standing for 10 min. After centrifugation at 2000 rpm for 10 min, to 1.2 ml supernatant, 0.67% TBA 0.6 ml was added. The mixture was placed in a boiling water bath for 10 min, and was taken out for cooling, and the OD value at a wavelength of 532 nm was determined.
The experimental data was expressed as x±SEM; SPSS 13.0 statistic software was used. Homogeneity or heterogeneity of variance was determined by one-factor analysis of variance. In the case of homogeneity of variance, LSD test was used; in the case of heterogeneity of variance, Dunnett's T3 test was used. Significant difference among different groups was compared, and P<0.05 indicated statistical significance.

[3] = compound 100 pM + NGF 0.15 ng/mL

Papp at 120 min (in vitro)	SMILES	Average score (growth of neurites of chick embryo dorsal root ganglion) ([1]; compound 1 pM + NGF 0.15 ng/mL)	Average score (growth of neurites of chick embryo dorsal root ganglion) [1, 3]	Neurologic deficit score ([2]; 30 mg/kg i.g. once/d for 3 d, behaviour within 6 h after ligation, x ± SEM, model group 3.92, sham 0.00)	neurologic deficit score decreased compared to the group administered with Compound 6 ([2]; 30 mg/kg i.g., BCAO-LBP mice)	MDA content ([2]; whole cerebrum, 30 mg/kg i.g. once/d for 3 d, x ± SEM, model group 40.94, sham 33.15)
35.9 ×10⁻⁶ cm/s	Cc1ccc(S(=O)(=O)N2CCSC[C@H]2C(=O)N[C@H](CCc2ccccc2)C(=O)OC(C)C)cc1 [Compound 26, (R)-isopropyl-4-phenyl-2((R)-(4-methylphenyl)sulfonyltetrahydro-1,4-thiazin-3-aminoformyl)butyrate]	1.80	2.78			
27.3 ×10⁻⁶ cm/s	Cc1ccc(S(=O)(=O)N2CCSC[C@H]2C(=O)N[C@@H](CCc2ccccc2)C(=O)OC(C)C)cc1 [Compound 25, (S)-isopropyl-4-phenyl-2((R)-(4-methylphenyl)sulfonyltetrahydro-1,4-thiazin-3-aminoformyl)butyrate]	1.76	2.68			
39.7 ×10⁻⁶ cm/s	COC(=O)[C@H](Cc1ccccc1)NC(=O)[C@@H]1CSCCN1S(=O)(=O)c1ccc(C)cc1 [Compound 16, (S)-methyl-3-phenyl-2((R)-(4-methylphenyl)sulfonyltetrahydro-1,4-thiazin-3-aminoformyl)propionate]	1.57	2.69			
37.8 ×10⁻⁶ cm/s	Cc1ccc(S(=O)(=O)N2CCSC[C@H]2C(=O)N[C@H](Cc2ccccc2)C(=O)OC(C)C)cc1 [Compound 24, (R)-isopropyl-3-phenyl-2((R)-(4-methylphenyl)sulfonyltetrahydro-1,4-thiazin-3-aminoformyl)propionate]	1.89	2.80			

Second part, the compound before the results:

SMILES	Papp at 120 min (in vitro)	Average score (growth of neurites of chick embryo dorsal root ganglion) ([1]; compound 1 pM + NGF 0.15 ng/mL)	Average score (growth of neurites of chick embryo dorsal root ganglion) [1, 3]	Neurologic deficit score ([2]; 30 mg/kg i.g. once/d for 3 d, behaviour within 6 h after ligation, x ± SEM, model group 3.92, sham 0.00)	neurologic deficit score decreased compared to the group administered with Compound 6 ([2]; 30 mg/kg i.g., BCAO-LBP mice)	MDA content ([2]; whole cerebrum, 30 mg/kg i.g. once/d for 3 d, x ± SEM, model group 40.94, sham 33.15)
COC(=O)[C@H](NC(=O)[C@@H]1CSCCN1S(=O)(=O)c1ccc(C)cc1)C(C)C [Compound 14, (R)-methyl-3-methyl-2((R)-(4-methylphenyl)sulfonyltetrahydro-1,4-thiazin-3-aminoformyl)butyrate]	33.2 ×10⁻⁶ cm/s	1.44	2.35			
Cc1ccc(S(=O)(=O)N2CCSC[C@H]2C(=O)N[C@@H](C(=O)OC(C)(C)C)C(C)C)cc1 [Compound 15, (R)-tert-butyl-3-methyl-2((R)-(4-methylphenyl)sulfonyltetrahydro-1,4-thiazin-3-aminoformyl)butyrate]	40.8 ×10⁻⁶ cm/s	1.78	2.68	1.91 ± 0.28	~8%	33.77 ± 1.61 nmol/g
CCOC(=O)[C@H](Cc1ccccc1)NC(=O)[C@@H]1CSCCN1S(=O)(=O)c1ccc(C)cc1 [Compound 17, (S)-ethyl-3-phenyl-2((R)-(4-methylphenyl)sulfonyltetrahydro-1,4-thiazin-3-aminoformyl)propionate]	22.7 ×10⁻⁶ cm/s	1.75	2.71			
COC(=O)[C@@H](NC(=O)[C@@H]1CSCCN1S(=O)(=O)c1ccc(C)cc1)C(C)C [Compound 10, (S)-methyl-3-methyl-2((R)-(4-methylphenyl)sulfonyltetrahydro-1,4-thiazin-3-aminoformyl)butyrate]	34.1 ×10⁻⁶ cm/s	1.54	2.38			
CCOC(=O)[C@@H](Cc1ccccc1)NC(=O)[C@@H]1CSCCN1S(=O)(=O)c1ccc(C)cc1 [Compound 21, (R)-ethyl-3-phenyl-2((R)-(4-methylphenyl)sulfonyltetrahydro-1,4-thiazin-3-aminoformyl)propionate]	25.8 ×10⁻⁶ cm/s	1.79	2.74			
Cc1ccc(S(=O)(=O)N2CCSC[C@H]2C(=O)N[C@@H](Cc2ccccc2)C(=O)OC(C)(C)C)cc1 [Compound 19, (S)-tert-butyl-3-phenyl-2((R)-(4-methylphenyl)sulfonyltetrahydro-1,4-thiazin-3-aminoformyl)propionate]	42.3 ×10⁻⁶ cm/s	1.55	2.49			
Cc1ccc(S(=O)(=O)N2CCSC[C@H]2C(=O)N[C@H](C(=O)OC(C)(C)C)C(C)C)cc1 [Compound 12, (S)-tert-butyl-3-methyl-2((R)-(4-methylphenyl)sulfonyltetrahydro-1,4-thiazin-3-aminoformyl)butyrate]	22.5 ×10⁻⁶ cm/s	1.77	2.48			
